{
  "source": "patent US20090143362A1",
  "about": "“CARBAMAZEPINE FORMULATIONS” (priority 2007, published 2009)",
  "origin": "cited, not measured here",
  "key": {"[1]": {"settings": "blood level"}, "[2]": {"settings": "in presence of water, after 1 hour, X-ray powder diffraction"}},
  "data": [
    {"molecule": "NC(=O)N1c2ccccc2C=Cc2ccccc21", "note": "[Carbamazepine, 5H-dibenz-[b,f]azepine-5-carboxamide]", "values": [
      {"measurement": "therapeutic range", "setting": "[1]", "value": "4 to 12", "unit": "µg/mL"},
      {"measurement": "water solubility", "value": "poorly water-soluble"},
      {"measurement": "conversion to carbamazepine dihydrate complete", "setting": "[2]", "value": 95, "unit": "%"}
    ]}
  ]
}
